Here are results for ten substances from publication PMC10458721, “Monitoring Both Extended and Tryptic Forms of Stable Isotope-Labeled Standard Peptides Provides an Internal Quality Control of Proteolytic Digestion in Targeted Mass Spectrometry-Based Assays” (Molecular & Cellular Proteomics : MCP, 2023).

Data set [1] deals with T1, trypsin (Sus scrofa, UniProt P00761). Nature of the data set: Apparent first order hydrolysis of extended SIS peptides (kobs, half-life, time to 75% and 95% hydrolyzed). Type of data set: in vitro ADME. Further details: purchased Promega V5111. Conditions: for Observed rate constant (slope of linear regression of Ln(A,t/A,0) over time): trypsin digestion time course, direct-MRM. How it is done:
By plotting the natural log as a function of time, or ln(At/A0)∼t, with At and A0 reported as the average peak area of hE from process triplicates at time t and time zero, respectively, a linear fit was calculated and kobs was reported as the slope of the fit (supplemental Table S9). […] Hydrolysis or disappearance of extended SIS peptides across both assays were categorized as fast, medium, slow, or pre-digested by Lys-C (not included in plot) by rate constants calculated using apparent first order kinetics. […] MRM, multiple reaction monitoring; SIS, stable isotope-labeled standard.

In data set [2] the target is T1, trypsin. Kind of data set: hE/hT QC metric of proteolytic digestion (pass/marginal/fail). The arrangement: purchased Promega V5111. The settings on record: QC panel SIS pairs, 0 to 21 h, three replicates, versus 16-h control digestion. An excerpt:
We next compared the utility of the peak area of hT and the ratio of hE/hT as a QC metric to monitor trypsin digestion efficiency. Measurements from the triplicate control digestion samples were used to define the acceptability criteria for the QC metric. A QC pass was defined as an hT value or hE/hT ratio within 2 SD of the median. A marginal QC was defined as a value that was less than three SD but more than two SD greater than the median. Finally, a QC failure was defined as a value that was three SDs greater than the median. We then tested the ability of the QC metric, as defined by either the hE/hT ratio or hT alone, to detect a loss of assay sensitivity, defined as the endogenous peak area in the stressed condition as a fraction of the control. There were 23 targets (15 for the direct-MRM assay, 8 for the immuno-MRM assay) that had endogenous measurements above the LLOQ in the control digestions and also had extended peptides that were not categorized as ‘pre-digested’.
Finally, to ensure the hE/hT QC metric was not subject to day-to-day variability, we excluded any SIS pairs that failed QC across our replicate, 16-h control digestions (one in the stressor experiment and one in the time course experiment). […]

Setting [3] is: fit with R2 > 0.80, min 3-4 time points.
[4] abbreviates: fit with R2 > 0.80, time points chosen to maximize R2 (minimum 4 points).

T1 sequence (P00761 9-231): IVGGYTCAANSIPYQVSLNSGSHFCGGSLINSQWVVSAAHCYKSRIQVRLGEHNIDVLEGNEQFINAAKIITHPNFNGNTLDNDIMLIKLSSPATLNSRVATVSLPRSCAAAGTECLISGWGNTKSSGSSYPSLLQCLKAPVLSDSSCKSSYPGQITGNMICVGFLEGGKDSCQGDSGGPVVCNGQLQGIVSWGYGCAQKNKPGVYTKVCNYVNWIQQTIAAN

Take “EEMEKVLAGETLSVNDPPDVLDRQK [ILF3_Q12906_GO]”: the “Observed rate constant (slope of linear regression of Ln(A,t/A,0) over time)” value in data set [1] (setting [3]) was -0.0481 min⁻¹.

As for GEEDNSLSVR[+10], the “hE/hT QC result in trypsin digestion time course” value in data set [2] is listed as “inconsistent QC results across the three replicates prior to the last time point”.

For the substance DEVIKEVQEFYKDTYNK [CD9_P21926_1751], in data set [1] (setting [3]), the “Observed rate constant (slope of linear regression of Ln(A,t/A,0) over time)” value is -0.0217 min⁻¹.

As to “DSFRFGAPPHAGGGIGLERVTML [DARS_P14868_1752]”, the “Observed rate constant (slope of linear regression of Ln(A,t/A,0) over time)” value in data set [1] (setting [3]) is -0.0308 min⁻¹.

Turning to IERTFHVETPEEREEW [AKT1_P31749_1751], in data set [1] (setting [4]), the “Observed rate constant (slope of linear regression of Ln(A,t/A,0) over time)” value is -0.0388 min⁻¹.

For DTKSDIIFFQRSVP [IL18_Q14116_1752], the “Observed rate constant (slope of linear regression of Ln(A,t/A,0) over time)” value in data set [1] (setting [3]) is -0.1677 min⁻¹.

As for KHRTGDEITYQC[+57]RNGF [CFH_P08603_1752], the “Observed rate constant (slope of linear regression of Ln(A,t/A,0) over time)” value in data set [1] (setting [4]) is -0.0473 min⁻¹.

“IQVGRNIIHGSDSVESAEKEIGLWF [NME1_P15531_1753]”: the “Observed rate constant (slope of linear regression of Ln(A,t/A,0) over time)” value in data set [1] (setting [4]) was -0.0813 min⁻¹.

Regarding AATC[+57]SKYTELPYGREDVLKE, the “Half-life of extended SIS peptide” value in data set [1] (direct-MRM trypsin digestion time course, from observed rate constant) stood at 31.34 min.

Take YTELPYGR[+10]: the “hE/hT QC result in trypsin digestion time course” value in data set [2] is “pass QC, then fail (or marginally pass) the QC at the latest time point”.
